Test results from publication PMC12076188 (Cancer Research Communications, 2025).
pIC50: −log10 of the molar value. Where two headings read alike, the source gives them in different places. Each block holds one compound with its values, some of them ahead of it.

Key:
[1] = test system: NCI-H1373 lung cancer xenograft; test: Cell line–derived xenograft study; format: in vivo, BALB/c-nu mice; conditions: NCI-H1373 lung cancer xenograft model; single agents or combination, orally once a day
Source text: Female BALB/c nude mice (CAnN.Cg-Foxn1^nu/Crl, RRID: IMSR_CRL:194) were obtained from Beijing Vital River Laboratory Animal Technology Co., Ltd. Female BALB/c-nu mice (BALB/cAnSlacNifdc-nu) were obtained from SPF (Beijing) Biotechnology Co., Ltd. Female NCG mice (NOD/ShiLtJGpt-Prkdc^em26Cd52Il2rg^em26Cd22/Gpt) were obtained from GemPharmatech. Subcutaneous tumors were induced by injecting cells in PBS containing 50% BD Matrigel (Corning) in the right flank of female BALB/c-nu mice (NCI-H1373, 5 × 10^6 cells), female BALB/c nude mice (MIA PaCa-2, 1 × 10^7 cells), or female NCG mice (NCI-H358, 5 × 10^6 cells).

[2] = molecular target: T1, GDP-bound NRAS WT (Homo sapiens, UniProt P01111); test: SOS1-mediated guanine nucleotide exchange assay (TR-FRET); format: biochemical
T1 construct: His-tagged NRAS WT (aa 1–172); made in house; host or cells: Escherichia coli

[3] = molecular target: T2, GppNp-bound NRAS WT (Homo sapiens, UniProt P01111); test: GppNp-loaded RAS and cRAF interaction assay (HTRF); format: biochemical
T2 construct: His-tagged NRAS WT (aa 1–172); made in house; host or cells: Escherichia coli

[4] = molecular target: T3, GppNp-bound HRAS WT (Homo sapiens, UniProt P01112); test: GppNp-loaded RAS and cRAF interaction assay (HTRF); format: biochemical; conditions: GppNp-bound HRAS WT and cRAF RBD interaction; read-out: IC50
T3 construct: His-tagged HRAS WT (aa 1–166); made in house; host or cells: Escherichia coli

[5] = test system: Ba/F3 cells carrying HRAS p.G12C; test: Ba/F3-engineered cell line viability; format: cell-based; conditions: Mus musculus, BaF3, 144 h; Ba/F3 HRAS p.G12C; 6 days of treatment; read-out: Cell viability IC50
Description: (§1) The inhibitory activity of compounds on Ba/F3-engineered cell line viability was tested by Kyinno Biotechnology. Other cell viability assays on human cancer cell lines were conducted in-house. Cells were seeded in 96-well plates and incubated overnight, followed by treatment with various concentrations of compounds or solvent control for 6 days. Cell viability was detected using either the CellTiter-Glo (CTG) luminescent cell viability assay or the CTG 3D cell viability assay (Promega) for 2D and 3D CTG assays, respectively. […] The cell density is indicated in Supplementary Table S3.

[6] = test system: Ba/F3 cells carrying NRAS p.G12C; test: Ba/F3-engineered cell line viability; format: cell-based; conditions: Mus musculus, BaF3, 144 h; Ba/F3 NRAS p.G12C; 6 days of treatment; read-out: Cell viability IC50
Description: as §1

[7] = test system: CR6256 PDX tumors rebounding after sotorasib treatment; test: PDX study on tumors regrown under sotorasib; format: in vivo, mice; conditions: after 63 days of 100 mg/kg sotorasib; then 100 mg/kg sotorasib, 100 mg/kg glecirasib, 50 mg/kg cetuximab or combination
[8] = molecular target: T4, GDP-bound HRAS WT (Homo sapiens, UniProt P01112); test: SOS1-mediated guanine nucleotide exchange assay (TR-FRET); format: biochemical; conditions: GDP-bound HRAS WT; compound pre-incubation 25°C, 60 min; read-out: IC50
T4 construct: His-tagged HRAS WT (aa 1–166); made in house; host or cells: Escherichia coli
T4 sequence (P01112 1-166): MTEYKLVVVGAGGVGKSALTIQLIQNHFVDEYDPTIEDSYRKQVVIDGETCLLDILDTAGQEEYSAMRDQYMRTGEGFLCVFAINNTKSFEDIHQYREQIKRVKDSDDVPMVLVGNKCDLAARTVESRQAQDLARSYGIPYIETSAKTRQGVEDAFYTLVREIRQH

T1 sequence (P01111 1-172): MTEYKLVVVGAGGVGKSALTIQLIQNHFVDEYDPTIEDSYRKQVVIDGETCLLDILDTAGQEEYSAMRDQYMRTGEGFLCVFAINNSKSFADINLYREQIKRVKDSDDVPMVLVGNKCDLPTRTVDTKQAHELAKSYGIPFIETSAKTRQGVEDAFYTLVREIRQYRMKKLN
T2 sequence (P01111 1-172): as above
T3 sequence (P01112 1-166): as the sequence (P01112 1-166) above

Structure (SMILES): Nc1nccc(Sc2cnc(N3CCC4(CC3)Cc3ncccc3[C@H]4N)cn2)c1Cl [JAB-3312]
TGI [1]: 64%

pIC50 [2]: < 5.00
pIC50 [3]: < 5.00
Structure (SMILES): C=C(F)C(=O)N1CCN(c2nc(OC[C@@H]3CCCN3C)nc3c2CCN(c2cccc4cccc(Cl)c24)C3)C[C@@H]1CC#N [Adagrasib]

pIC50 [4]: < 5.00
pIC50 [5]: 7.57
pIC50 [6]: 7.83
pIC50 ([2]; GDP-bound NRAS WT, compound pre-incubation 25°C, 60 min, read-out: IC50): < 5.00
pIC50 ([3]; GppNp-bound NRAS WT and cRAF RBD interaction, read-out: IC50): < 5.00
pIC50 [8]: < 5.00
Structure (SMILES): C=CC(=O)N1CCN(c2nc(=O)n(-c3c(C)ccnc3C(C)C)c3nc(-c4c(O)cccc4F)c(F)cc23)[C@@H](C)C1 [Sotorasib, reference compound]
tumor response of rebound tumors [7]: continued to grow
